Measured values reported in patent US12667584B2, “Adenosine analog and its use in regulating the circadian clock” (NATIONAL INSTITUTE OF BIOLOGICAL SCIENCES, BEIJING, priority 2017, dated 2026).

Experiments:
[1] = test system: Per2::LUC adult murine fibroblasts; assay: Time-of-admission phase shift and amplitude in Per2::LUC adult murine fibroblasts; type: cell-based, mouse
Experimental: In above investigation, we found cordycepin (cordycepin-like nucleosides) shift the circadian phase, therefore it could be seemed as a circadian time giver (zeitgeiber). One prominent character of zeitgeiber is phase dependent function. Therefore, we further tested whether cordycepin also has the character. We use both transcriptional reporter (Per2:luc U2OS cells) translational reporter (Per2::LUC adult murine fibroblasts) model to investigate this character. The two reporter were seeded in 3.5 cm dish, transferred into lumicycle, and treated with cordycepin (100 μM in Per2:luc U2OS cells and 25 μM in Per2::LUC adult murine fibroblasts) every 2 hours from CT 0 to CT 24. 3 days after treatment and data analysis, we found in both reporter cells, cordycepin show highly “time-of-admission” dependent phase-change, 12 h phase shift when applied at CT10 and nearly 0 h phase shift when applied at CT 20 (F). […] To test this, we treated nearly damped Per2::LUC adult murine fibroblasts at CT 20 with DMSO or 25 μM cordycepin.

[2] = test system: core clock genes; assay: qPCR of pre-mRNA of core clock genes in liver; type: in vivo, mouse; conditions: 15 mg/kg, 1 h after treatment
Experimental: Total RNA Extraction and pre-mRNA Analysis: Total RNA from liver was extracted 1 h after treatment of either DMSO or 15 mg/kg bw with QIAGEN Rneasy Mini Kit (74104, Qiagen), then digested with RNase-Free DNase Set (79254, Qiagen) to remove DNA residual. 500 ng total was reverse transcripted into cDNA with PrimeScript™ RT Master Mix (Takara, RR036A). To compare pre-mRNA levels, equal amount of cDNA RNA from DMSO and CA03 treated samples were analyzed using SYBR Green Master Mix (Kapa Biosystems, KP-KK4601) on a BioRad CFX96 instrument. Each gene was analyzed with multiple primers across the whole gene, and the amplification products were either intronic or across an intron-exon junction. Only primers with good melt-curve were used. For quantification, gene expression in DMSO treated sample was used as control, the relative genes expression in CA03 treated sample calculated by the comparative Ct Method.
Next, the inventors sought to determine whether the clock effects of cordycepin can be recaptured in vivo. […] Mice were intraperitoneally (i.p.) injected with the cordycepin at ZT4 (ZT, zeitgeber time; ZT0 starts light-on, and ZT12 begins light-off). […] This observation is especially true when nascent RNA levels were measured, highlighting the first-order, inductive response in E-box genes as previously proposed(FIG. 2B). […]

[3] = Cordycepin concentration in CSF after intraperitoneal injection; type: in vivo
Text: We measured the cordycepin concentration in cerebrospinal fluid (CSF) after the intraperitoneal (I.P.) injection.

Compound: Nc1ncnc2c1ncn2[C@@H]1O[C@H](CO)C[C@H]1O [Cordycepin, 3′-deoxy-adenosine]
- phase shift ([1]; 25 μM applied at CT10): 12 h
- phase shift ([1]; 25 μM applied at CT 20): ~0 h
- amplitude ([1]; 25 μM at CT 20, nearly damped fibroblasts): increase the amplitude
- E-box gene transcription (pre-mRNA, liver) [2]: activate
- RRE gene and internal control gene transcription (pre-mRNA, liver) [2]: repress
- time of detection in the CSF after the injection [3]: ≤ 15 min
